Data reported in patent US7863325B2, “Crystalline genistein sodium salt dihydrate” (Axcentua Pharmaceuticals AB, priority 2008, dated 2011).
Read-outs that look alike come from different tables or passages of the source.

Tests used:
[1] = SuperSol 1000 kinetic and equilibrium solubility assay
[2] = rat
Procedure: Preparation of Dosing Solutions for In-Vivo Study: Genistein and Crystalline genistein sodium salt dihydrate were stored at room temperature under desiccant and protected from light. The dosing solutions were prepared fresh from powders on the day of dosing. The dosing solution for intravenous administration (IV) was prepared at 1 mg/mL (free acid) in 50:50 DMSO:saline. The dosing solutions for intraduodenal administration (ID) were prepared at 2 mg/mL (genistein free acid) in a 0.2% sodium carboxymethyl cellulose (Na CMC) solution in water.
Animal Dosing: The pharmacokinetics of genistein was evaluated in fasted male Sprague-Dawley rats. Each animal was fitted with a jugular vein cannula (JVC) for blood sampling. Animals intended for intravenous dosing were fitted with an additional JVC for dose administration. Animals intended for intraduodenal dosing were fitted with an intraduodenal cannula (IDC) for dose administration. Surgically modified animals were housed one per cage. All animals were supplied with a commercial rodent diet (LabDiet, Certified Rodent Diet #5002) ad libitum prior to study initiation. […] Water was supplied ad libitum.
Intraduodenal dosing solutions were administered as a single bolus dose at time zero on the day of dosing. Intravenous doses were administered as a slow IV injection over approximately 1 minute. Blood sampling times began at the end of the infusion. Blood samples were collected.
Each blood sample was collected from the rats via a jugular vein cannula and placed into chilled polypropylene tubes containing sodium heparin as an anticoagulant. Samples were centrifuged at a temperature of 4° C. and at a speed of 13,000 rpm for 5 minutes. Samples were maintained chilled throughout processing. Each plasma sample was split into two aliquots. The first aliquot contained 50 μL of plasma. All remaining plasma volume was used for the second aliquot. Samples were then placed on dry ice, and stored in a freezer set to maintain −60° C. to −80° C. The total concentration of genistein in plasma samples were analyzed by LC-MS/MS after an overnight incubation with glucuronidase/arylsulfatase enzyme mixture. Pharmacokinetic parameters were calculated using the WinNonlin software.
Analysis of Plasma Samples: An LC-MS/MS analytical method for the determination of genistein in rat plasma was developed. Prior to sample analysis, a standard curve was analyzed to determine the specificity, range, and linearity of the method. Total genistein in plasma samples was determined by pre-treating all samples with β-glucuronidase/arylsulfatase enzymes and incubating prior to analysis. Incubation with the enzyme mix deconjugated any glucuronide or sulfate metabolites of genistein back to the parent form.
Acceptance Criteria for LC-MS/MS Analysis: One standard curve was dispersed throughout each analytical run. At least ⅝ of the standards must be accurate to within ±20%, except at the LLOQ where ±25% is acceptable, in order for the run to pass.
Pharmacokinetic Analysis: Individual plasma concentrations versus time data for genistein were subjected to non-compartmental analysis using the pharmacokinetic program WinNonlin v. […] Plasma concentrations below the limit of quantitation (10 ng/mL) were assigned a value of zero for PK analysis only.

[3] = Hydration study (IPA/water mixtures, XRPD and TGA); assay type: physicochemical; settings: IPA/water mixtures (3%, 5% and 10%), ca. 48 hours, ambient temperature
Procedure: Approximately 100 mg of crystalline genistein sodium salt dihydrate were placed in ca. 500 μL IPA/water mixtures (3%, 5% and 10%) at the water level. Each mixture was agitated for ca. 48 hours at ambient temperature and then filtered to recover the solid for XRPD and TGA studies.

[4] = Stability study (80° C., 40° C./75 RH %, light; XRPD and colour); assay type: physicochemical
Procedure: Sample stability was tested at 80° C. for 7 days and at 40° C./75 RH % for 7 days. Observations such as color change were noted after 7 days and XRPD of samples were taken after 7 days to investigate any solid form change.

[5] = Solubility in different solvents (aliquot addition until dissolution); assay type: physicochemical
Procedure: Solubility in different solvents: Solubility in different organic solvents was measured using the following protocol. Approximately 25 mg portions of genistein and crystalline genistein sodium dihydrate salt were placed in 48 different vials, separately. 5 volume aliquots of each solvent were added exclusively to a vial. Between each addition, the mixture was checked for dissolution and if no dissolution was apparent, the procedure was continued until dissolution was observed or when 50 volumes had been added.

[6] = Aqueous solubility (slurry shaken ca. 24 hours, filtered, HPLC); assay type: physicochemical; settings: aqueous buffer, thermodynamic from solid
Procedure: Aqueous Solubility: Aqueous solubility was measured using the following protocol. Slurries of genistein and of crystalline genistein sodium dihydrate salt were made up in aqueous media in which pH was set at 4.5, 6.7, and 7.5, each slurry was shaken at ambient temperature for ca. 24 hours and then filtered using a 0.2 μm filter into a clean vial. The saturated solutions were then diluted and analyzed for API (genistein) content using N-Ac-DL-Methionine on a Chirobiotic T HPLC column and UV detector set at λmax=270 nm. The mobile phase was acetonitrile/water run in isocratic mode over a 30 minute period. The results are presented in Table 3, (BDL=below detection limits).

[7] = Disproportionation study (slurry in distilled water, XRPD, pH); assay type: physicochemical; settings: 50 mg slurried in 250 μL distilled water ca. 48 hours
Procedure: A 50 mg sample of crystalline genistein sodium salt dihydrate was slurried in 250 μL distilled water for ca. 48 hours and then checked by XRPD for disproportionation. The pH of the supernatant was also measured using a Corning 240 pH meter. […] The pH of the supernatant after slurrying was 7.1.

[8] = Gravimetric vapor sorption (GVS); assay type: physicochemical
Procedure: Gravimetric Vapor Sorption (GVS): Approximately 15 mg of sample was placed into a wire-mesh vapor sorption balance pan and loaded into an SMS intrinsic vapor sorption balance supplied (Surface Measurement Systems Instruments). The sample was then dried by maintaining a 0% humidity environment until no further weight change was recorded. Subsequently, the sample was then subjected to a ramping profile from 0-90% RH at 10% RH increments, maintaining the sample at each step until equilibration had been attained (99.5% step completion). Upon reaching equilibration, the % RH within the apparatus was ramped to the next step and the equilibration procedure repeated. After completion of the sorption cycle, the sample was then dried using the same procedure. The weight change during the sorption/desorption cycles were then monitored, allowing for the hygroscopic nature of the sample to be determined.
However, between 20 and 70 RH % (typical working range of material) only ca. 2% moisture change was observed.

[9] = intravenous, 1 mg/kg, mean ± SD, n = 3

O.O.O=c1c(-c2ccc(O)cc2)coc2cc(O)cc(O)c12.[Na] [genistein sodium salt dihydrate]
C[Eq] (late kinetic solubility) ([1]; EtOH 100%): 11.20 mg×1^−1 | C[MSS] (early kinetic solubility) ([1]; EtOH 100%): 10.85 mg×1^−1 | ISI (Intrinsic Solubility Index) ([1]; EtOH 100%): 0.07 | ISI / late solubility profile, rating in words ([1]; EtOH 100%): poor | KSR (Kinetic Solubility ratio) ([1]; EtOH 100%): 0.97 | KSR, rating in words ([1]; EtOH 100%): excellent | MSS (Maximum Solubility Speed) ([1]; EtOH 100%): 36.90 mg×1^−1×min^−1 | MSS, rating in words ([1]; EtOH 100%): excellent | ΔC [C, − CMSS] ([1]; EtOH 100%): 0.35 mg×1^−1 | C[Eq] (late kinetic solubility) ([1]; EtOH/dH2O 50/50 (vol/vol)): 17.40 mg×1^−1 | C[MSS] (early kinetic solubility) ([1]; EtOH/dH2O 50/50 (vol/vol)): 14.67 mg×1^−1 | ISI (Intrinsic Solubility Index) ([1]; EtOH/dH2O 50/50 (vol/vol)): 0.60 | ISI / late solubility profile, rating in words ([1]; EtOH/dH2O 50/50 (vol/vol)): good-to-acceptable | KSR (Kinetic Solubility ratio) ([1]; EtOH/dH2O 50/50 (vol/vol)): 0.84 | KSR, rating in words ([1]; EtOH/dH2O 50/50 (vol/vol)): excellent | MSS (Maximum Solubility Speed) ([1]; EtOH/dH2O 50/50 (vol/vol)): 20.66 mg×1^−1×min^−1 | MSS, rating in words ([1]; EtOH/dH2O 50/50 (vol/vol)): excellent | ΔC [CEq − CMSS] ([1]; EtOH/dH2O 50/50 (vol/vol)): 2.73 mg×1^−1 | C[Eq] (late kinetic solubility) ([1]; EtOH/dH2O 75/25 (vol/vol)): 15.86 mg×1^−1 | C[MSS] (early kinetic solubility) ([1]; EtOH/dH2O 75/25 (vol/vol)): 11.20 mg×1^−1 | ISI (Intrinsic Solubility Index) ([1]; EtOH/dH2O 75/25 (vol/vol)): 1.26 | ISI / late solubility profile, rating in words ([1]; EtOH/dH2O 75/25 (vol/vol)): excellent | KSR (Kinetic Solubility ratio) ([1]; EtOH/dH2O 75/25 (vol/vol)): 0.71 | KSR, rating in words ([1]; EtOH/dH2O 75/25 (vol/vol)): excellent | MSS (Maximum Solubility Speed) ([1]; EtOH/dH2O 75/25 (vol/vol)): 37.33 mg×1^−1×min^−1 | MSS, rating in words ([1]; EtOH/dH2O 75/25 (vol/vol)): excellent | ΔC [CEq − CMSS] ([1]; EtOH/dH2O 75/25 (vol/vol)): 4.66 mg×1^−1 | Time after ID dosing at which Cmax was observed ([2]; intraduodenal dosing, mean profile (FIG. 13)): ≤ 15 min | AUClast ([2]; intraduodenal, 20 mg/kg, mean ± SD, n = 3): 1161 ± 358 kg·ng·h/mL/mg | Pharmacokinetic profile following IV dosing, compared between the two forms ([2]; intravenous, 1 mg/kg): not significantly different | AUClast [2, 9]: 2129 ± 331 kg·ng·h/mL/mg | AUC∞ [2, 9]: 2189 ± 356 kg·ng·h/mL/mg | Hydrate formation (XRPD, TGA) [3]: no further hydrates | Solid form stability (XRPD, colour) ([4]; 40° C./75 RH % for 7 days): no change | Solid form stability (XRPD, colour) ([4]; 80° C. for 7 days): slight loss in crystallinity | Light stability ([4]; 7 day light stability tests): no change in color or solid form | solubility ([5]; aqueous with cosolvent or surfactant or cyclodextrin, thermodynamic from solid, Acetone/Water (50:50)): 69.6 mg/mL | solubility ([5]; organic solvent or mixture, thermodynamic from solid, 1,4-dioxane): < 10.6 mg/mL | solubility ([5]; organic solvent or mixture, thermodynamic from solid, 1-Butanol (BuOH)): 19.3 mg/mL | solubility ([5]; organic solvent or mixture, thermodynamic from solid, 2-Propanol (IPA)): < 10.2 mg/mL | solubility ([5]; organic solvent or mixture, thermodynamic from solid, Acetone): < 10.2 mg/mL | solubility ([5]; organic solvent or mixture, thermodynamic from solid, Acetone/IPA (50:50)): 20.2 mg/mL | solubility ([5]; organic solvent or mixture, thermodynamic from solid, Acetonitrile (MeCN)): < 10.4 mg/mL | solubility ([5]; organic solvent or mixture, thermodynamic from solid, Cyclohexane): < 10.9 mg/mL | solubility ([5]; organic solvent or mixture, thermodynamic from solid, Dichloromethane (DCM)): < 10.8 mg/mL | solubility ([5]; organic solvent or mixture, thermodynamic from solid, Diisopropylether (DIPE)): < 9.7 mg/mL | solubility ([5]; organic solvent or mixture, thermodynamic from solid, Dimethyl sulfoxide (DMSO)): > 235 mg/mL | solubility ([5]; organic solvent or mixture, thermodynamic from solid, Ethanol (EtOH)): 98 mg/mL | solubility ([5]; organic solvent or mixture, thermodynamic from solid, Heptane): < 9.9 mg/mL | solubility ([5]; organic solvent or mixture, thermodynamic from solid, Methanol (MeOH)): < 8.8 mg/mL | solubility ([5]; organic solvent or mixture, thermodynamic from solid, Methyl acetate (MeOAc)): < 10.2 mg/mL | solubility ([5]; organic solvent or mixture, thermodynamic from solid, Methyl isobutyl ketone (MIBK)): < 9 mg/mL | solubility ([5]; organic solvent or mixture, thermodynamic from solid, Methylethyl ketone (MEK)): < 9.2 mg/mL | solubility ([5]; organic solvent or mixture, thermodynamic from solid, N-Methyl-2-pyrrolidinone (NMP)): 90.4 mg/mL | solubility ([5]; organic solvent or mixture, thermodynamic from solid, N-N-dimethylformamide (DMF)): > 218 mg/mL | solubility ([5]; organic solvent or mixture, thermodynamic from solid, Octanol): < 11 mg/mL | solubility ([5]; organic solvent or mixture, thermodynamic from solid, Tetrahydrofuran (THF)): < 10.4 mg/mL | solubility ([5]; organic solvent or mixture, thermodynamic from solid, Toluene): < 9.9 mg/mL | solubility ([5]; organic solvent or mixture, thermodynamic from solid, Toluene/Dioxane (50:50)): < 9.7 mg/mL | solubility ([5]; organic solvent or mixture, thermodynamic from solid, tert-Butylmethyl ether (TBME)): < 9.2 mg/mL | solubility ([6]; Water/slurry pH 4.5, ambient temperature): 0.136 mg/mL | solubility ([6]; Water/slurry pH 6.7, ambient temperature): 0.707 mg/mL | solubility ([6]; Water/slurry pH 7.5, ambient temperature): 0.65 mg/mL | Disproportionation (XRPD) [7]: No signs of disproportionation | pH of the supernatant after slurrying [7]: 7.1 | Maximum water adsorbed (GVS) ([8]; 0-90% RH cycle): 45 wt % | Moisture change (GVS) ([8]; between 20 and 70 RH %): ca. 2%
